Data taken from PubChem BioAssay AID1996.
In brackets after ≈: the same amount, converted by molar mass.

Conditions: buffer; pH 7.4; 200.0 µM

solubility kinetic [µg/mL] | SMILES
> 51.9 | CN1CCN(C(=O)c2cccn(Cc3cccc(Cl)c3)c2=O)CC1
3.6 (≈ 8.36 µM) | COC(=O)c1ccc(CNC(=O)c2ccc(S(=O)(=O)N3CCCCCC3)cc2)cc1
24.2 (≈ 56.6 µM) | CCN(c1ccccc1)S(=O)(=O)c1ccc(OC)c(NC(=O)c2ccc(=O)[nH]c2)c1
1 (≈ 2.74 µM) | COc1ccc(C(=O)Nc2ccc(NC(=O)c3ccccc3F)cn2)cc1
> 58.6 | COc1ccccc1NC(=O)C/C(N)=N/OCC(=O)Nc1cccc(Cl)c1
< 0.8 | CCOc1ccc(/C=C2\SC(=O)N(c3ccc(O)cc3)C2=O)cc1OC
43.4 (≈ 144 µM) | NC(=O)c1cc(S(=O)(=O)NCc2cccs2)cs1
14.6 (≈ 58.6 µM) | COc1ccc(OC)c2c(=O)cc(C(=O)O)[nH]c12
34.5 (≈ 119 µM) | CCC(C)c1ccc(C(CC)NC(=O)C2CCCO2)cc1 (stereo unspecified)
8.7 (≈ 31.4 µM) | CCOC(=O)c1c(C)[n+]([O-])c2ccc3c(non3O)c12
21.1 (≈ 60.6 µM) | O=C(Nc1ccccc1NS(=O)(=O)c1ccc(F)cc1)C1CCC1
> 43.9 | CCOc1ccc(S(=O)(=O)NCc2cccnc2)cc1
31.1 (≈ 106 µM) | CCN(Cc1ccncc1)Cc1c(O)ccc2ccccc12
2 (≈ 6.17 µM) | CC(=O)c1c(C)[nH]c(C(=O)Nc2cccc(C(F)(F)F)c2)c1C
> 39.9 | COc1ccc(Cc2n[nH]c(=S)n2N)cc1OC
> 36.2 | Cc1ccccc1NC(=O)NCc1cccnc1
11.5 (≈ 31.6 µM) | CC1CCCC(NC(=O)COC(=O)CCC(=O)c2ccc(F)cc2)C1C (stereo unspecified)
> 41.8 | CCCC(C)NC(=O)CSc1nnc2ccccn12 (stereo unspecified)
> 44.4 | CN1C(=O)C(c2ccccc2[N+](=O)[O-])C(=O)c2ccccc21 (stereo unspecified)
2.6 (≈ 7.99 µM) | C=CCOc1ccc(C2NC(=O)c3ccccc3O2)cc1OCC (stereo unspecified)
> 50.8 | Cc1ccccc1C(=O)NCC(=O)N1CCN(c2ccccn2)CC1
> 49.2 | COc1ccccc1C/C(N)=N/OC(=O)c1ccc2c(c1)OCO2
55.1 (≈ 138 µM) | CN(C)c1ccc(C(=O)N2CCNC(=O)C2CC(=O)Nc2ccc(F)cc2)cc1 (stereo unspecified)

solubility kinetic [µg/mL] | SMILES
20.2 (≈ 56.2 µM) | Cc1cnc(NC(=O)C2CC(=O)N(c3ccc4c(c3)OCCO4)C2)s1 (stereo unspecified)
27.3 (≈ 117 µM) | CC(=O)c1csc(COc2ccccc2)n1
24.2 (≈ 117 µM) | O=Cc1ccc(Sc2ncccn2)o1
> 48.5 | O=C1OCC2=C1C(c1ccc(F)cc1)CC(=O)N2c1ccccc1 (stereo unspecified)
> 45.2 | O=C(CSc1ncccn1)Nc1ccc2[nH]c(=O)[nH]c2c1
46.3 (≈ 147 µM) | Cc1ccc(N2C(=O)CCC(C(=O)O)C2c2cccs2)cc1 (stereo unspecified)
> 52.7 | CCN(C(=O)COC(=O)CCC(=O)c1cccs1)C1CCCCC1
> 48.4 | COc1cc(C(=O)CSc2nccn2C)cc(OC)c1OC
33.7 (≈ 123 µM) | CC(=O)c1cccc(NC(=S)NCc2ccco2)c1
> 56.5 | CCOC(=O)C1=C(COC(=O)COc2ccccc2C=O)NC(=O)NC1C (stereo unspecified)
> 60.1 | COc1ccc(C(=O)NCC(=O)OCC(=O)NCc2ccc3c(c2)OCO3)cc1
5.6 (≈ 17.6 µM) | COc1cccc(-c2cc(C(=O)NC3CC3)c3ccccc3n2)c1
> 48.2 | NS(=O)(=O)c1ccc(CCNC(=O)c2ccc(=O)[nH]c2)cc1
> 50.6 | CC(=O)N1CCN(S(=O)(=O)c2ccc3c(c2)CCC(=O)N3)CC1
2.4 (≈ 6.89 µM) | COC(=O)c1cc(OC)c(OC)cc1NC(=O)Nc1ccccc1F
0.6 (≈ 1.96 µM) | CCOc1ccccc1NC(=S)NC(=O)C1CCCCC1
> 75.1 | COc1ccccc1OCC(O)CN1CCN(CC(=O)Nc2c(C)cccc2C)CC1.Cl (stereo unspecified)
3.5 (≈ 11.5 µM) | CC1=C(C)/C(=N\OS(=O)(=O)c2ccc(C)cc2)C=CC1=O
> 53.8 | CC(OC(=O)CN1C(=O)c2ccccc2C1=O)C(=O)NC1CCCCC1 (stereo unspecified)
> 42.8 | O=C(COc1ncnc2ccccc12)NC1CCCCC1
> 39.3 | CCNC(=O)C(C)Oc1ccc(Cl)cc1Cl (stereo unspecified)
2.5 (≈ 7.93 µM) | CCOc1ccc(NC(=O)CCC(=O)c2ccc(F)cc2)cc1
> 41.1 | O=C(NC1CCS(=O)(=O)C1)c1ccccc1Cl (stereo unspecified)

Continued, compound first:

SMILES | solubility kinetic [µg/mL]
O=C(/C=C/c1ccc(-c2ccccc2)cc1)NCc1cccnc1 | < 0.3
Cc1ccc(NC(=S)NC(=O)C2CC2)cc1Cl | 2.9 (≈ 10.8 µM)
CC(C)Oc1ccc(C(CC(=O)N2CCOCC2)C(C)C)cc1 (stereo unspecified) | > 47.9
NCCCNc1nc(N)c([N+](=O)[O-])c(NC2CCCCC2)n1 | > 46.4
COc1ccc(NCc2ccsc2)cc1 | 31.4 (≈ 143 µM)
CCOc1ccc(NC(=O)C2C3CC/C=C\CCC32)cc1 (stereo unspecified) | < 0.6
S=C(NCCc1ccccc1)N1CCOCC1 | > 37.6
COc1ccc(NC(=O)C(=S)NC2CCCCC2)cc1 | < 0.3
C#CC(CC)(CC)NC(=O)c1ccc(Br)s1 | 18.6 (≈ 62 µM)
O=C(NC1CCCCCC1)C(=O)NC1CC1 | 19.8 (≈ 88.3 µM)
S=C(NCCc1ccccc1)Nc1ccc(N2CCCCC2)cc1 | 0.6 (≈ 1.77 µM)
CC1CC(C)CN(S(=O)(=O)c2cccc3nsnc23)C1 (stereo unspecified) | 8.4 (≈ 27 µM)
CN1CCN(c2ccc(NC(=O)CN3CCOCC3)cc2F)CC1 | > 50.5
O=C(NCCCCNC(=O)C(F)(F)F)C(F)(F)F | > 42
Cc1ccccc1NC(=S)N(CCN(C)C)C(C)c1cccnc1 (stereo unspecified) | > 51.4
COc1cccc(NC(=S)Nc2ccc(Br)cc2Cl)c1 | 4.6 (≈ 12.4 µM)
CC(C)CCN1CCN(Cc2cccs2)CC1CCO (stereo unspecified) | 39.8 (≈ 134 µM)
C=CCN1C(=O)C2(OCCCO2)c2cc(C)ccc21 | 19.4 (≈ 74.8 µM)
COc1ccc(C(=O)CSc2ncnc3nc[nH]c23)cc1 | 8 (≈ 26.6 µM)
O=c1cc(C(F)(F)F)nc(SCc2cccc3ccccc23)[nH]1 | 7.5 (≈ 22.3 µM)

SMILES | solubility kinetic [µg/mL]
Cc1cc(C(=O)N2CCN(c3ccc([N+](=O)[O-])cc3)CC2)co1 | > 47.3
Cc1cc(O)c(CN2CC=C(c3ccccc3)CC2)cc1C(C)C | 1.2 (≈ 3.73 µM)
Cc1ccc2cc(CCl)c(Cl)nc2c1 | 3.7 (≈ 16.4 µM)
COc1ccc(-c2noc(-c3cccs3)n2)cc1OC | 0.5 (≈ 1.73 µM)
O=C(CSc1ncccc1C(=O)O)NC1CCCCCCC1 | 47.3 (≈ 147 µM)
O=C(CN1CCN(C(=O)c2ccccc2)CC1)Nc1ccccc1 | > 48.5
CCCCCCCc1c(O)nc(SCC(=O)O)[nH]c1=O | 43.9 (≈ 146 µM)
Cn1c(CN2CCN(CCO)CC2)c(C#N)c2ccccc21 | > 44.8
N#CC1(NC(=O)COC(=O)c2nccnc2N)CCCCC1 | > 45.5
CC(=O)Nc1ccc(S(=O)(=O)NC2CC2)cc1 | 37.6 (≈ 148 µM)
CC12CC3(C)CC(C)(C1)CC(C(=O)NC(=S)N1CCCC1)(C2)C3 | < 0.4
N/C(=N\[N+](=O)[O-])N1CCN(C(=O)c2ccccc2)CC1 | > 41.6
C=CCc1c(C)[nH]c(=O)[nH]c1=O | > 24.9
Oc1cccc(N2Cc3ccccc3C2)c1 | 13 (≈ 61.5 µM)
CCCNC(=O)c1nn2cc(Br)cnc2c1Cl | > 47.6
CN1C2CCC1CC(NC(=O)c1cc(Cl)cc3[nH]cnc13)C2 (stereo unspecified) | 40.7 (≈ 128 µM)
Cc1noc2ncnc(N3CCN(c4ccc(F)cc4)CC3)c12 | 1.7 (≈ 5.43 µM)
CCOc1ccc(N2C(=O)C3C4C=CC([C@H]5CC45)[C@@H]3C2=O)cc1 (stereo partly specified) | 8.5 (≈ 27.5 µM)
COCc1ccc(CN2CCC(CO)(CC3CCCCO3)CC2)o1 (stereo unspecified) | > 50.6
N#CC(C#N)=Cc1cnc(N2CCN(c3ccccc3)CC2)s1 | < 0.1
